Data set [1] concerns M-HeLa. Put plainly: MTT cytotoxicity, M-HeLa. Type of data set: cell-based, human. The conditions noted are these: M-HeLa. The text has this:
(§1) Cells and Materials. For the experiments, we used tumor cell cultures M-HeLa clone 11 (epithelioid carcinoma of the cervix, subline HeLa, clone M-HeLa), HuTu 80, human duodenal adenocarcinoma, Hep-2, human epithelial cells, SH-SY5Y, human neuroblast-like cells, A549, human lung adenocarcinoma, PA-1, human ovarian teratocarcinoma and MCF-7, a human mammary ductal adenocarcinoma from the collection of the Institute of Cytology, Russian Academy of Sciences (St. Petersburg, Russia); human liver cells (Chang liver) were from the collection and the Research Institute of Virology of the Russian Academy of Medical Sciences (Moscow, Russia).
(§2) MTT Assay. The cytotoxic effect on cells was determined using the colorimetric method of cell proliferation—the MTT test. NADP-H-dependent cellular oxidoreductase enzymes can, under certain conditions, reflect the number of viable cells. These enzymes reduce the tetrazolium dye (MTT) 3-(4,5-dimethylthiazol-2-yl)-2,5-diphenyl-tetrazolium bromide to insoluble blue-violet formazan, which crystallizes inside the cell. The amount of formed formazan is proportional to the number of cells with active metabolism. Cells were seeded on a 96-well Nunc plate at a concentration of 5 × 10^3 cells per well in a volume of 100 μL of medium and cultured in a CO2 incubator at 37 °C until a monolayer was formed. After the nutrient medium was removed, 100 µL of the test drug solutions at the given dilutions were added to the wells, which were prepared directly in the nutrient medium with the addition of 5% DMSO to improve solubility. After 48 h of incubation of the cells with the tested compounds, the nutrient medium was removed from the plates and 100 µL of the nutrient medium without serum with MTT at a concentration of 0.5 mg/mL was added and incubated for 4 h at 37 °C. Formazan crystals were added 100 µL of DMSO to each well. Optical density was recorded at 540 nm on an Invitrologic microplate reader (Novosibirsk, Russia). The experiments for all compounds were repeated three times.
(§3) Statistical analysis. The IC50 values were calculated using the MLA–Quest Graph™ IC50 Calculator (AAT Bioquest, Inc., Sunnyvale, CA, USA), 14 February 2022. Statistical analysis was performed with the Mann–Whitney test (p < 0.05). Tabular and graphical data contain averages and standard error.

For data set [2], the system named is HuTu 80. Put plainly: MTT cytotoxicity, HuTu 80. Type of data set: cell-based, human.
Text: as §1, §2, §3

In data set [3] the test system is Chang Liver. Put plainly: MTT cytotoxicity, normal Chang liver cells. Type of data set: cell-based, human. The conditions noted are these: Homo sapiens, Chang liver, 48 h incubation, read-out: IC50 (µM) Normal Cell Line Chang Liver.
Text: as §1, §2, §3

In data set [4] the test system is A549. Kind of data set: MTT cytotoxicity, A549. Type of data set: cell-based. The conditions noted are these: Homo sapiens, read-out: IC50 (µM) Cancer Cell Lines A549.
Text: as §1
(§4) MTT Assay. The cytotoxic effect on cells was determined using the colorimetric method of cell proliferation—the MTT test. NADP-H-dependent cellular oxidoreductase enzymes can, under certain conditions, reflect the number of viable cells. These enzymes reduce the tetrazolium dye (MTT) 3-(4,5-dimethylthiazol-2-yl)-2,5-diphenyl-tetrazolium bromide to insoluble blue-violet formazan, which crystallizes inside the cell. The amount of formed formazan is proportional to the number of cells with active metabolism. […] Optical density was recorded at 540 nm on an Invitrologic microplate reader (Novosibirsk, Russia). […]
(§5) Statistical analysis. The IC50 values were calculated using the MLA–Quest Graph™ IC50 Calculator (AAT Bioquest, Inc., Sunnyvale, CA, USA), 14 February 2022. […]

The subject of data set [5] is PA-1. Put plainly: MTT cytotoxicity, PA-1. The data set is classed as cell-based. The conditions noted are these: Homo sapiens, read-out: IC50 (µM) Cancer Cell Lines PA-1.
Text: as §1, §4, §5

The subject of data set [6] is HuTu 80 cells. Kind of data set: Induction of apoptosis, flow cytometry (annexin V-Alexa Fluor 647 / propidium iodide). Type of data set: cell-based, human. The following applies: IC50/2 and IC50, 24 h. As to the method:
The ability of the new compounds, proposed as antitumor agents, to induce cell death via apoptosis is a critical feature for their potential use in therapy. The apoptosis-inducing effects of lead compounds were investigated using flow cytometry at IC50/2 and IC50 concentrations on the HuTu 80 cell line (Figure 6A).
(§6) Cell Culture. HuTu 80 cells at 1 × 10^6 cells/well in a final volume of 2 mL were seeded into six-well plates. After 48 h of incubation, various concentrations of lead compounds were added to wells.
Cell Apoptosis Analysis. The cells were harvested at 2000 rpm for 5 min and were then washed twice with ice-cold PBS, and resuspended in binding buffer. Next, the samples were incubated with 5 μL of annexin V-Alexa Fluor 647 (Sigma-Aldrich, St Louis, MO, USA) and 5 μL of propidium iodide for 15 min at room temperature in the dark. Finally, the cells were analyzed using flow cytometry (Guava easy Cyte, MERCK, Rahway, NJ, USA) within 1 h. The experiments were repeated three times.

The subject of data set [7] is HuTu 80 cells. Put plainly: Mitochondrial membrane potential, JC-10 flow cytometry. The data set is classed as cell-based, human. The following applies: 24 h treatment, IC50/2 and IC50. As to the method:
In this study, we used the fluorescent dye JC-10 from the Mitochondria Membrane Potential Kit (Sigma, St. Louis, MO, USA). Changes in mitochondrial membrane potential under the influence of lead compounds 5a and 6a were determined at IC50/2 and IC50 concentrations on the HuTu 80 cell line. When JC-10 accumulates in the mitochondrial matrix, it forms fluorescent J-aggregates. Their red fluorescence is characteristic for normal cells with high mitochondrial membrane potential. The reduction in mitochondrial membrane potential in apoptotic cells allows JC-10 to escape out of the mitochondria in a monomeric form which has green fluorescence. The mitochondrial membrane potential of HuTu 80 cells is decreased after 24 h treatment with the lead compounds 5a and 6a. The change becomes more pronounced as the concentrations of the tested compounds approach IC50 (Figure 7).
as §6
Mitochondrial Membrane Potential. […] After the cells were rinsed three times and suspended in PBS, the JC-10 fluorescence was observed using flow cytometry (Guava easy Cyte, MERCK, Rahway, NJ, USA).
On the technique in general: In flow cytometry, cells or beads pass a laser one at a time.

For data set [8], the system named is PA-1 cells. Kind of data set: Cell glycolysis, Seahorse XF Glycolysis Stress Test (ECAR). The following applies: 100 μM. The data set is classed as cell-based, human. The text has this:
To investigate whether the cytotoxicity of 5a and 6a is related to their effects on metabolism, we quantified their inhibition of glycolysis in human ovarian teratocarcinoma PA-1 cells using Seahorse technology, which allows the rapid assessment of glycolytic metabolism in cells using a proton efflux rate assay (ECAR). It is well known that glucose in cells is converted to pyruvate and then either to lactate in the cytoplasm or CO2 and water in the mitochondria. As glucose is converted to lactate, protons are released into the extracellular environment to maintain intracellular pH homeostasis. This extracellular acidification is measured in real time and provides insight into the rate of glycolytic proton efflux. PA-1 cells are used for the study of glycolysis since a pronounced deregulation of cellular energy is observed in the case of ovarian cancer, mediating the growth, invasion and migration of tumor cells.
Measuring ECAR under these conditions provides the parameters presented in Figure 9c,d: the level of glycolysis and glycolytic capacity.
Determination of cell glycolysis. Cell glycolysis was measured with Seahorse XF Glycolysis Stress Test Kit and Seahorse Bioscience XF96 Extracellular Flux Analyzer (Agilent Technology, Boston, MA, USA). […] ECAR levels were examined and analyzed using Seahorse Bioscience XF96 Extracellular Flux Analyzer. […]

The IC50 is the point on the concentration scale where inhibition reaches its midpoint.

For `O=C(C[P+](c1ccccc1)(c1ccccc1)c1ccccc1)NCCC1c2c(ccc3ccccc23)Oc2ccc3ccccc3c21` [Compound 6a], the IC50 in data set [1] (Homo sapiens, MTT, 48 h incubation, read-out: IC50 (µM) Cancer Cell Lines M-HeLa) was 11 ± 8.7 µM; in data set [2] (Homo sapiens, HuTu80, 48 h, MTT, 48 h incubation, read-out: IC50 (µM) Cancer Cell Lines HuTu 80), 1.7 ± 0.1 µM; in data set [3] it was 41 ± 3.5 µM; in data set [4] it was 5.47 ± 0.07 µM; in data set [5], 11.2 ± 1.36 µM. For the same molecule, the “times more effective than the reference drug sorafenib” value in data set [1] is reported as “three times more effective”. Besides, the “times more effective / more cytotoxic than the reference drug sorafenib” value in data set [2] (HuTu 80) is reported as “three times more effective”. Moreover, the “apoptosis-inducing effect (in words)” value in data set [6] is reported as “dose-dependent apoptosis”. Also, in data set [7], the “mitochondrial membrane potential (in words)” value is “decreased”. For the same molecule, the “glycolysis (ECAR) at maximum concentration (in words)” value in data set [8] is on record as “completely blocking glycolysis”.

The values above are taken from publication PMC11203978, “Discovery of Di(het)arylmethane and Dibenzoxanthene Derivatives as Potential Anticancer Agents” (International Journal of Molecular Sciences, 2024).
